Values of other authors as cited in PubChem BioAssay AID977608.

Target: Cruzipain (Trypanosoma cruzi) (UniProt P25779)
Test: literature IC50 values for PDB complexes, PDB-derived complexes (AID 977608)
Conditions: PDB protein-ligand complexes, protein: cruzain, chain 3I06_A, PDB entry 3I06

SMILES: CCn1cnc2c(Nc3cc(F)cc(F)c3)nc(C=N)nc21
- IC50: 0.2 nM
